Molecular target: T1, KRAS G12C (Homo sapiens, UniProt P01116, G12C)
T1 construct: purchased Reactionbiology
Assay: KRAS G12C NEA-HTRF experiment (SOS1-catalyzed displacement of GDP by GTP)
Assay type: biochemical
In short: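 His-tagged KRAS G12C preloaded with DY647-GDP was preincubated 15 min at 20 °C with compound, then exchanged with SOS1 (0.2 μM working solution) and GTP (200 μM working solution) for 2 h at 20 °C in the dark. HTRF 665/615 nm ratio with anti-His-Tb was normalised to T0 and no-compound controls; IC50 by four-parameter fit.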

T1 sequence (P01116 1-188 isoform P01116-2 G12C): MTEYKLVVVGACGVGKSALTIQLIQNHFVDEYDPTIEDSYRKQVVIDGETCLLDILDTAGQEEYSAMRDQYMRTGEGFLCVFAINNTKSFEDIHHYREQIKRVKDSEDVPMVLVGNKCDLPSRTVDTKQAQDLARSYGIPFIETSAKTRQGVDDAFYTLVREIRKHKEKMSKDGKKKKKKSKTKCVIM

| Structure (SMILES) | IC50 [nM] |
| --- | --- |
| C=CC(=O)N1CCN2C(=O)c3c(N4CC(N(C)CCOC)CC4(C)C)nc(-c4c(O)cccc4F)c(Cl)c3OCC2C1 (single isomer, unassigned) [Z296-1] | 7 |
| C=CC(=O)N1CCN2C(=O)c3c(N4CCC[C@@]4(C)CO)nc(-c4c(O)cccc4F)c(Cl)c3OC[C@H]2C1 [Z279-2] | 29 |
| C=CC(=O)N1CCN2C(=O)c3c(N4CC(N(C)C5COC5)CC4(C)C)nc(-c4c(O)cccc4F)c(Cl)c3OC[C@H]2C1 (stereo partly drawn) [Z326, (6aR)-8-acryloyl-4-chloro-1-(2,2-dimethyl-4-(methyl(oxetan-3-yl)amino)pyrrolidin-1-yl)-3-(2-fluoro-6-hydroxyphenyl)-6,6a,7,8,9,10-hexahydro-12H-pyrazino[2,1-c]pyrido[3,4-f][1,4]oxazepin-12-one] | 8 |
| C=CC(=O)N1CCN2C(=O)c3c(N4C[C@@H](O)CC4(C)C)nc(-c4c(O)ccc(Cl)c4F)c(F)c3OC[C@H]2C1 (single isomer, unassigned) [Z340-1] | 27 |
| C=CC(=O)N1CCN2C(=O)c3c(N4CCN(C)C[C@@H]4C)nc(-c4nc(N)cc(C)c4C(F)(F)F)c(Cl)c3OC[C@H]2C1 [Z328-1, (R)-8-acryloyl-3-(6-amino-4-methyl-3-(trifluoromethyl)pyridin-2-yl)-4-chloro-1-((S)-2,4-dimethylpiperazin-1-yl)-6,6a,7,8,9,10-hexahydro-12H-pyrazino[2,1-c]pyrido[3,4-f][1,4]oxazepin-12-one] | 15 |
| C=CC(=O)N1CCN2C(=O)c3c(N4CCN(C)C(C)C4C)nc(-c4c(O)cccc4F)c(Cl)c3OC[C@H]2C1 (stereo partly drawn) [Z369, (6aR)-8-acryloyl-4-chloro-3-(2-fluoro-6-hydroxyphenyl)-1-(2,3,4-trimethylpiperazin-1-yl)-6,6a,7,8,9,10-hexahydro-12H-pyrazino[2,1-c]pyrido[3,4-f][1,4]oxazepin-12-one] | 68.6 |
| C=CC(=O)N1CCN2C(=O)c3c(N4CCN(C5COC5)C[C@@H]4C)nc(-c4c(O)cccc4F)c(Cl)c3OC[C@H]2C1 (single isomer, unassigned) [Z239-1] | 124 |
| C=CC(=O)N1CCN2C(=O)c3c(N4C[C@H](O)[C@H]4C)nc(-c4c(O)cccc4F)c(Cl)c3OC[C@H]2C1 (single isomer, unassigned) [Z102-4] | 103 |
| C=CC(=O)N1CCN2C(=O)c3c(N4C[C@@](C)(O)CC4(C)C)nc(-c4c(O)cccc4F)c(Cl)c3OC[C@H]2C1 (single isomer, unassigned) [Z243-1] | 7 |
| C=CC(=O)N1CCN2C(=O)c3c(N4CC[C@H](OC)[C@@H]4C)nc(-c4c(O)cccc4F)c(Cl)c3OC[C@H]2C1 [Z347-1, (6aR)-8-acryloyl-4-chloro-3-(2-fluoro-6-hydroxyphenyl)-1-((2S,3S)-3-methoxy-2-methylpyrrolidin-1-yl)-6,6a,7,8,9,10-hexahydro-12H-pyrazino[2,1-c]pyrido[3,4-f][1,4]oxazepin-12-one] | 12 |
| C=CC(=O)N1CCN2C(=O)c3c(N4CC(C)(C)OC[C@@H]4C)nc(-c4c(O)cccc4F)c(Cl)c3OC[C@H]2C1 [Z276-1, (6aR)-8-acryloyl-4-chloro-3-(2-fluoro-6-hydroxyphenyl)-1-((S)-2,2,5-trimethylmorpholino)-6,6a,7,8,9,10-hexahydro-12H-pyrazino[2,1-c]pyrido[3,4-f][1,4]oxazepin-12-one] | 113 |
| C=CC(=O)N1CCN2C(=O)c3c(N4CC[C@@H]5C[C@@H]54)nc(-c4c(O)cccc4F)c(Cl)c3OC[C@H]2C1 (single isomer, unassigned) [Z39-2] | 66 |
| C=CC(=O)N1CCN2C(=O)c3c(N4CCN(C(C)=O)C(C)(C)C4)nc(-c4c(O)cccc4F)c(Cl)c3OC[C@H]2C1 [Z315, (6aR)-1-(4-acetyl-3,3-dimethylpiperazin-1-yl)-8-acryloyl-4-chloro-3-(2-fluoro-6-hydroxyphenyl)-6,6a,7,8,9,10-hexahydro-12H-pyrazino[2,1-c]pyrido[3,4-f][1,4]oxazepin-12-one] | 33 |
| C=CC(=O)N1CCN2C(=O)c3c(N4CCCC4(C)C)nc(-c4c(O)cccc4F)c(Cl)c3OC[C@H]2C1 [Z22, (6aR)-8-acryloyl-4-chloro-1-(2,2-dimethylpyrrolidin-1-yl)-3-(2-fluoro-6-hydroxyphenyl)-6,6a,7,8,9,10-hexahydro-12H-pyrazino[2,1-c]pyrido[3,4-f][1,4]oxazepin-12-one] | 20 |
| C=CC(=O)N1CCN2C(=O)c3c(N4C[C@@H](O)CC4(C)C)nc(-c4c(F)ccc(Cl)c4O)c(F)c3OC[C@H]2C1 (single isomer, unassigned) [Z341-1] | 35 |
| C=CC(=O)N1CCN2C(=O)c3c(N4C[C@@H](CO)CC4(C)C)nc(-c4c(O)cccc4F)c(Cl)c3OC[C@H]2C1 (single isomer, unassigned) [Z240-1] | 11 |
| C=CC(=O)N1CCN2C(=O)c3c(N4Cc5nn(C)cc5[C@@H]4C)nc(-c4c(O)cccc4F)c(Cl)c3OC[C@H]2C1 (single isomer, unassigned) [Z345-2] | 41 |

| Structure (SMILES) | IC50 [nM] |
| --- | --- |
| C=CC(=O)N1CCN2C(=O)c3c(N4C[C@H](OC)C[C@@H]4C)nc(-c4c(O)cccc4F)c(Cl)c3OC[C@H]2C1 [Z259a, (6aR)-8-acryloyl-4-chloro-3-(2-fluoro-6-hydroxyphenyl)-1-((2S,4R)-4-methoxy-2-methylpyrrolidin-1-yl)-6,6a,7,8,9,10-hexahydro-12H-pyrazino[2,1-c]pyrido[3,4-f][1,4]oxazepin-12-one] | 26 |
| C=CC(=O)N1CCN2C(=O)c3c(N4C[C@@H](OC)CC4(C)C)nc(-c4c(O)cccc4F)c(Cl)c3OC[C@H]2C1 (single isomer, unassigned) [Z244-1] | 26 |
| C=CC(=O)N1CCN2C(=O)c3c(N4CCN(C)[C@H](C)[C@@H]4C)nc(-c4c(O)cccc4F)c(Cl)c3OC[C@H]2C1 (single isomer, unassigned) [Z308a-1] | 58 |
| C=CC(=O)N1CCN2C(=O)c3c(N4C[C@@H](N5CCOCC5)CC4(C)C)nc(-c4c(O)cccc4F)c(Cl)c3OC[C@H]2C1 (single isomer, unassigned) [Z297-2] | 8 |
| C=CC(=O)N1CCN2C(=O)c3c(N4CCC(OC)C4(C)C)nc(-c4c(O)cccc4F)c(Cl)c3OC[C@H]2C1 (stereo partly drawn) [Z241a, (6aR)-8-acryloyl-4-chloro-3-(2-fluoro-6-hydroxyphenyl)-1-(3-methoxy-2,2-dimethylpyrrolidin-1-yl)-6,6a,7,8,9,10-hexahydro-12H-pyrazino[2,1-c]pyrido[3,4-f][1,4]oxazepin-12-one] | 9 |
| C=CC(=O)N1CCN2C(=O)c3c(N4C[C@@H](N(C)C)C[C@@H]4C)nc(-c4c(O)cccc4F)c(Cl)c3OC[C@H]2C1 [Z237-2, (6aR)-8-acryloyl-4-chloro-1-((2S,4S)-4-(dimethylamino)-2-methylpyrrolidin-1-yl)-3-(2-fluoro-6-hydroxyphenyl)-6,6a,7,8,9,10-hexahydro-12H-pyrazino[2,1-c]pyrido[3,4-f][1,4]oxazepin-12-one] | 65 |
| C=CC(=O)N1CCN2C(=O)c3c(N4CCC(O)C4(C)C)nc(-c4c(O)cccc4F)c(Cl)c3OC[C@H]2C1 (stereo partly drawn) [Z241, (6aR)-8-acryloyl-1-(3-hydroxy-2,2-dimethylpyrrolidin-1-yl)-4-chloro-3-(2-fluoro-6-hydroxyphenyl)-6,6a,7,8,9,10-hexahydro-12H-pyrazino[2,1-c]pyrido[3,4-f][1,4]oxazepin-12-one] | 18 |
| C=CC(=O)N1CCN2C(=O)c3c(N4CCN(S(C)(=O)=O)C[C@@H]4C)nc(-c4c(O)cccc4F)c(Cl)c3OC[C@H]2C1 [Z318-1, (6aR)-8-acryloyl-1-((S)-2-methyl-4-(methylsulfonyl)piperazin-1-yl)-4-chloro-3-(2-fluoro-6-hydroxyphenyl)-6,6a,7,8,9,10-hexahydro-12H-pyrazino[2,1-c]pyrido[3,4-f][1,4]oxazepin-12-one] | 37 |
| C=CC(=O)N1CCN2C(=O)c3c(N4C[C@@H](N(C)CCOC)C[C@@H]4C)nc(-c4c(O)cccc4F)c(Cl)c3OC[C@H]2C1 [Z358-1] | 26.4 |
| C=CC(=O)N1CCN2C(=O)c3c(N4C[C@@H](OC)C[C@@H]4C)nc(-c4c(O)cccc4F)c(Cl)c3OC[C@H]2C1 [Z260a, (6aR)-8-acryloyl-4-chloro-3-(2-fluoro-6-hydroxyphenyl)-1-((2S,4S)-4-methoxy-2-methylpyrrolidin-1-yl)-6,6a,7,8,9,10-hexahydro-12H-pyrazino[2,1-c]pyrido[3,4-f][1,4]oxazepin-12-one] | 27 |
| C=CC(=O)N1CCN2C(=O)c3c(N4CCN(C(=O)C5CC5)C[C@@H]4C)nc(-c4c(O)cccc4F)c(Cl)c3OC[C@H]2C1 [Z320-1, (6aR)-8-acryloyl-4-chloro-1-((S)-4-(cyclopropanecarbonyl)-2-methylpiperazin-1-yl)-3-(2-fluoro-6-hydroxyphenyl)-6,6a,7,8,9,10-hexahydro-12H-pyrazino[2,1-c]pyrido[3,4-f][1,4]oxazepin-12-one] | 9 |
| C=CC(=O)N1CCN2C(=O)c3c(N4C[C@H](N(C)CCOC)CC4(C)C)nc(-c4c(O)cccc4F)c(Cl)c3OC[C@H]2C1 (single isomer, unassigned) [Z296-2] | 39 |
| C=CC(=O)N1CCN2C(=O)c3c(N4CC[C@H](N(C)C)C4(C)C)nc(-c4c(O)cccc4F)c(Cl)c3OC[C@H]2C1 (single isomer, unassigned) [Z360-2] | 36.9 |
| C=CC(=O)N1CCN2C(=O)c3c(N4CC[C@H](OC)C4(C)C)nc(-c4c(O)cccc4F)c(F)c3OC[C@H]2C1 (single isomer, unassigned) [Z327-2] | 64 |
| C=CC(=O)N1CCN2C(=O)c3c(N4C[C@H](N5CCOCC5)CC4(C)C)nc(-c4c(O)cccc4F)c(Cl)c3OC[C@H]2C1 (single isomer, unassigned) [Z297-1] | 19 |
| C=CC(=O)N1CCN2C(=O)c3c(N4CC[C@@H](OC)C4(C)C)nc(-c4c(O)cccc4F)c(F)c3OC[C@H]2C1 (single isomer, unassigned) [Z327-1] | 26 |

Source: US20230203060A1 (GENFLEET THERAPEUTICS (SHANGHAI) INC., priority 2020, published 2023)
